We go through one molecule from patent US8222487B2, “Application of ERF genes from Bupleurum kaoi” (National Tsing Hua University, priority 2009, dated 2012).

SMILES strings stand for the structures.

This assay relates to B. kaoi adventitious roots. Description: Effect of MeJA on saikosaponin production in adventitious roots (HPLC). It counts as cell-based, Bupleurum kaoi. Particulars: for Increase of total saikosaponins: 2 weeks after treatment, P<0.05; for Saikosaponin: measured 14 days after MeJA treatment, mean ± S.E., n=3. The procedure: Adventitious root cultures were induced from the roots of germ-free seedlings of B. kaoi and were subcultured every 6 weeks by adding 0.2 g roots to a 125 ml flask containing 50 ml of B5 liquid medium supplemented with 2 mg 1^−1 NAA. Cultures were shaken using a rotary shaker at 100 rpm at 25° C. in the dark. To quantify the effect of MeJA on saikosaponin level, adventitious roots were treated with 500 and 1000 μM MeJA 2 weeks after subculture. Total saikosaponin was measured 2 weeks after MeJA treatment. To monitor expression of MeJA-responsive genes, the nutrient medium was refreshed 4 weeks after subculture and MeJA (500 μM) was applied 2 weeks after refreshment. Roots were harvested at 13 time points (5 min; 1, 2, 8, 24 hours; 2, 4, 6, 8 days; 2, 3, 4, 5 weeks) after the addition of the MeJA. The saikosaponins level was measured according to Li et al. (Li X. Q. et al., Biol. Pharm. Bull. 28 (2005) 1736-1742) with some modifications. Freeze-dried adventitious roots were ground into a fine powder and extracted with 70% methanol at a ratio of 10:1 (v/w) at 25° C. with gentle shaking for 24 h. After centrifugation at 10,000×g for 10 min, the supernatant was filtered through a 0.45 μm filter. The amount of total saikosaponins (saikosaponin-a, saikosaponin-c, and saikosaponin-d) in each extract was quantified using a high performance liquid chromatograph (HPLC) (Waters 600 controller autoinjector) with a C18 Inertsil 5 ODS-2 column (4.6 mm×250 mm) and a mobile phase of 45% acetonitrile/55% H2O. The flow rate was 1 ml min^−1, the injection volume was 20 μl, and the eluent was monitored at 210 nm using a Waters 996 photodiode array detector.

On to `CC/C=C\CC1C(=O)CCC1CC(=O)OC` (stereo not shown) [MeJA, Methyl jasmonate], for which the “Increase of total saikosaponins” value is listed as 38 fold (500 μM MeJA) and 21 fold (1000 μM MeJA). The Saikosaponin (MeJA 500 μM) is 63.60 ± 20.46 μg g^−1 of dry wt and the Saikosaponin (MeJA 1000 μM) was 39.73 ± 13.25 μg g^−1 of dry wt.
